Data taken from patent US20060034781A1, “PERORAL PREPARATION FOR PREVENTION OR TREATMENT OF ATOPIC DERMATATIS” (Kyowa Hakko Kogyo Co., Ltd., priority 2002, published 2006).

Columns and labels:
Type in all cases: in vivo
Conditions in all cases: oral, in feed (0.25% N-acetyl-trans-4-hydroxy-L-proline or 0.5% trans-4-hydroxy-L-proline) versus control feed
NC/Nga mice = assay: Suppression of auricular edema in DNCB-treated atopic dermatitis model mice
Description: (§1) For the test, NC/Nga mice (five weeks age; purchased from Charles River) were used. The breeding conditions were that the mice were bred under room temperature of 22±2° C. and humidity of 35±15% and that feed and water were freely taken by them.
(§2) The test feed was prepared by well mixing of powdery feed CE-2 (manufactured by Nippon Claire) with 0.25% by weight of N-acetyl-trans-4-hydroxy-L-proline or 0.50% by weight of trans-4-hydroxy-L-proline. The feed containing N-acetyl-trans-4-hydroxy-L-proline was named a feed 1 while the feed containing trans-4-hydroxy-L-proline was named a feed 2 and, as a control feed, a powdery feed CE-2 was used.
With regard to the hapten, a product prepared by dissolving 1.5% by weight of dinitrochlorobenzene (DNCB) in a solution comprising 20% by volume of olive oil and 80% by volume of acetone was used. […]
Starting from the day when application of the hapten started, thickness of the right auricle was measured using Pescock Dial Thickness Gauge (manufactured by Ozaki Seisakusho) one daily.
An increasing amount of auricular edema was calculated according to the following formula 1 as a relative value to an increasing amount of auricular edema of a mouse which was not treated with DNCB and the result is shown in Table 2. […]

IgE = IgE concentration in serum of atopic dermatitis model mice (ELISA)
Description: as §1, §2
(§3) With regard to the hapten, a product prepared by dissolving 1.5% by weight of dinitrochlorobenzene (DNCB) in a solution comprising 20% by volume of olive oil and 80% by volume of acetone was used.
(§4) Three mice were used for each of the test groups, and 20 μl of 1.5% DNCB was respectively applied onto both side of the right auricle of each of the mice after nine days, ten days, thirteen days and fourteen days from initiation of administration of the test feed.
With regard to the model mice where atopic dermatitis appeared used in Test Example 1, blood was collected from right thigh on the 27th day from initiation of administration of the test feed. […]

mast cells = assay: Mast cell density at auricle of atopic dermatitis model mice (Toluidine Blue staining)
Description: as §1, §2, §3, §4
With regard to the model mice where atopic dermatitis appeared used in Test Example 1, tissues at auricle were frozen and embedded in Tissue-Tek O. C. T. Compound (manufactured by Sakura Seiki K. K.) on the 27th day from initiation of administration of the test feed. […]

## CC(=O)N1C[C@H](O)C[C@H]1C(=O)O [N-acetyl-trans-4-hydroxy-L-proline]
NC/Nga mice
  auricular edema induced by DNCB (result in words): apparently suppressed
IgE
  increase in IgE concentration in serum by application of DNCB (result in words): significantly suppressed
Mast cells
  increase in mast cell density by application of DNCB (result in words): apparently suppressed

## O=C(O)[C@@H]1C[C@@H](O)CN1 [trans-4-hydroxy-L-proline]
NC/Nga mice
  auricular edema induced by DNCB (result in words): apparently suppressed
IgE
  increase in IgE concentration in serum by application of DNCB (result in words): significantly suppressed
Mast cells
  increase in mast cell density by application of DNCB (result in words): apparently suppressed
